According to patent publication US20250215029A1 (Recludix Pharma, Inc., priority 2022, published 2025):

Columns and labels:
[1] = biological target: T1, Recombinant STAT6 protein (STAT6 (W123-T658)) (Homo sapiens, UniProt P42226); assay: STAT6 Fluorescence Polarization (FP) Assay; format: binding; details: STAT6 (W123-T658) 250 nM, probe 5-FAM-Ap[…]-NH2 2 nM, 45-minute incubation; read-out: STAT6 (FP assay IC50 class)
T1 construct: Recombinant STAT6 protein (STAT6 (W123-T658))
T1 sequence (P42226 123-658): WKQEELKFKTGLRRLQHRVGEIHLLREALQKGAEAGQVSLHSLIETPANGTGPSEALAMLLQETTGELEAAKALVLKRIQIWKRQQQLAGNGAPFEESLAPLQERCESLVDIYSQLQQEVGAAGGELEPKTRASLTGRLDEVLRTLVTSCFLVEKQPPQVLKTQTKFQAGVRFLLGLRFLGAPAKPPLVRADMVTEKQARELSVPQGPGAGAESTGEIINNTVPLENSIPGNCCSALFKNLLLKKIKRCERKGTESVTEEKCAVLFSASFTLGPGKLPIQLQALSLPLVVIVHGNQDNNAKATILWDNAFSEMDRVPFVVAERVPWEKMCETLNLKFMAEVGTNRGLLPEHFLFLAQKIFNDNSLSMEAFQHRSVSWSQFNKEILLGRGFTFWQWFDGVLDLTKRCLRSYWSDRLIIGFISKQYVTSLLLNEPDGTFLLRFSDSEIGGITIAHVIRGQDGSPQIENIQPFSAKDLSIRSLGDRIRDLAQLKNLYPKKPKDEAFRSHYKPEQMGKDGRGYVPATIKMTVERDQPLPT
Summary of the method: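 Protein-probe mix (250 nM STAT6 W123-T658, 2 nM 5-FAM-pTyr peptide) in 10 mM HEPES pH 7.4, 50 mM NaCl, 1 mM EDTA, 0.05% Tween 20, 2 mM DTT; added to compound dilution series, 1% DMSO final; 45 min RT; FP read; IC50 via nonlinear regression.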

[2] = biological target: T2, Recombinant STAT3 protein (STAT3 (G127-I722)) (Homo sapiens, UniProt P40763); assay: STAT3 Fluorescence Polarization (FP) Assay; format: binding; details: STAT3 (G127-I722) 25 nM, probe 5-FAM-GpYLPQTV-NH2 2 nM, 45-minute incubation; read-out: STAT3 (FP assay IC50 class)
T2 construct: Recombinant STAT3 protein (STAT3 (G127-I722))
T2 sequence (P40763 127-722): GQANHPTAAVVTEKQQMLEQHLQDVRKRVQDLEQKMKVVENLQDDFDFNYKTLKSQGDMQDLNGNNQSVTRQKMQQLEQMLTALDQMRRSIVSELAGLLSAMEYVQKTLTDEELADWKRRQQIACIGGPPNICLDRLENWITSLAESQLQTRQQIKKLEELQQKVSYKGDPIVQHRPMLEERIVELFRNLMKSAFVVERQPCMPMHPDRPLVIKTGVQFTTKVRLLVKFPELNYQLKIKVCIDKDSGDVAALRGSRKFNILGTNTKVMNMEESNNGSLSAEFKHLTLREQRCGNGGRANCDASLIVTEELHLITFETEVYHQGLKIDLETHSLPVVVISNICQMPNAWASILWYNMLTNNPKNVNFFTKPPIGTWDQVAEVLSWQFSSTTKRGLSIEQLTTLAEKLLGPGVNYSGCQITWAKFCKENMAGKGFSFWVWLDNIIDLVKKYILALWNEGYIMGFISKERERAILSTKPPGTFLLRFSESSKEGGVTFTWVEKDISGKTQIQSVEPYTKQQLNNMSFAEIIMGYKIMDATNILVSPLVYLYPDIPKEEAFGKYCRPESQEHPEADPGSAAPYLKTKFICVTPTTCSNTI
Summary of the method: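 Read-out is fluorescence polarization (mP) after 45 min at room temperature, with IC50 fitted by nonlinear regression against log compound concentration. Mixture: 25 nM STAT3 (G127-I722), 2 nM 5-FAM-GpYLPQTV-NH2 phosphopeptide, 10 mM HEPES pH 7.4 buffer, 1% DMSO.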

IC50 [1]	IC50 [2]	Compound
3 to 30 µM	1 to 10 µM	O=C(N[C@H]1CCC[C@H]2CC[C@@H](C(=O)N3CC(C4=CCCOC4)C3)N2C1=O)c1cc2cc(CP(=O)(O)O)ccc2s1 [Compound 672, ((2-(((3S,6S,9aS)-3-(3-(5,6-dihydro-2H-pyran-3-yl)azetidine-1-carbonyl)-5-oxooctahydro-1H-pyrrolo[1,2-a]azepin-6-yl)carbamoyl)benzo [b]thiophen-5-yl)methyl) phosphonic acid]
3 to 30 µM	0.1 to 1 µM	Cc1nnc([C@H]2[C@H](c3ccccc3)CN2C(=O)[C@@H]2CC[C@@H]3CCC[C@H](NC(=O)c4cc5cc(C(F)P(=O)(O)O)ccc5s4)C(=O)N32)o1 (stereo partly shown) [Compound 673]
3 to 30 µM	< 0.1 µM	COC[C@@H]1CCN1c1ncncc1C1CN(C(=O)[C@@H]2CC[C@@H]3CCC[C@H](NC(=O)c4cc5cc(CP(=O)(O)O)ccc5s4)C(=O)N32)C1 [Compound 675, ((2-(((3S,6S,9aS)-3-(3-(4-((S)-2-(methoxymethyl)azetidin-1-yl)pyrimidin-5-yl)azetidine-1-carbonyl)-5-oxooctahydro-1H-pyrrolo[1,2-a]azepin-6-yl)carbamoyl)benzo [b]thiophen-5-yl)methyl) phosphonic acid]
3 to 30 µM	< 0.1 µM	C[C@H]1C[C@H]2CC[C@@H](C(=O)N3CC(c4cncnc4N4CCC4)C3)N2C(=O)[C@@H](NC(=O)c2cc3cc(CP(=O)(O)O)ccc3s2)C1 [Compound 678, ((2-(((3S,6S,8R,9aR)-3-(3-(4-(azetidin-1-yl)pyrimidin-5-yl)azetidine-1-carbonyl)-8-methyl-5-oxooctahydro-1H-pyrrolo[1,2-a]azepin-6-yl)carbamoyl)benzo [b]thiophen-5-yl)methyl) phosphonic acid]
3 to 30 µM	< 0.1 µM	C[C@H]1COCCN1c1ccncc1C1CN(C(=O)[C@@H]2CC[C@@H]3CCC[C@H](NC(=O)c4cc5cc(CP(=O)(O)O)ccc5s4)C(=O)N32)C1 [Compound 679, ((2-(((3S,6S,9aS)-3-(3-(4-((S)-3-methylmorpholino)pyridin-3-yl)azetidine-1-carbonyl)-5-oxooctahydro-1H-pyrrolo[1,2-a]azepin-6-yl)carbamoyl)benzo [b]thiophen-5-yl)methyl) phosphonic acid]
3 to 30 µM	< 0.1 µM	N#CC1CN(c2ccncc2C2CN(C(=O)[C@@H]3CC[C@@H]4CCC[C@H](NC(=O)c5cc6cc(CP(=O)(O)O)ccc6s5)C(=O)N43)C2)C1 [Compound 680, ((2-(((3S,6S,9aS)-3-(3-(4-(3-cyanoazetidin-1-yl)pyridin-3-yl)azetidine-1-carbonyl)-5-oxooctahydro-1H-pyrrolo[1,2-a]azepin-6-yl)carbamoyl)benzo [b]thiophen-5-yl)methyl) phosphonic acid]
3 to 30 µM	< 0.1 µM	O=C(N[C@H]1CCC[C@H]2CC[C@@H](C(=O)N3CC(c4cncnc4N4CCC4)C3)N2C1=O)c1cc2cc(CP(=O)(O)O)ccc2s1 [Compound 681, ((2-(((3S,6S,9aS)-3-(3-(4-(azetidin-1-yl)pyrimidin-5-yl)azetidine-1-carbonyl)-5-oxooctahydro-1H-pyrrolo[1,2-a]azepin-6-yl)carbamoyl)benzo [b]thiophen-5-yl)methyl) phosphonic acid]
3 to 30 µM	0.1 to 1 µM	COc1c(Cl)cncc1C1CN(C(=O)[C@@H]2CC[C@@H]3CCC[C@H](NC(=O)c4cc5cc(C(F)P(=O)(O)O)ccc5s4)C(=O)N32)C1 (stereo partly drawn) [Compound 682, ((2-(((3S,6S,9aS)-3-(3-(5-chloro-4-methoxypyridin-3-yl)azetidine-1-carbonyl)-5-oxooctahydro-1H-pyrrolo[1,2-a]azepin-6-yl)carbamoyl)benzo [b]thiophen-5-yl)fluoromethyl) phosphonic acid]
3 to 30 µM	< 0.1 µM	O=C(N[C@H]1CCC[C@H]2CC[C@@H](C(=O)N3CC(c4cnccc4N4C[C@@H]5C[C@H]4CO5)C3)N2C1=O)c1cc2cc(C(F)P(=O)(O)O)ccc2s1 (stereo partly drawn) [Compound 683, ((2-(((3S,6S,9aS)-3-(3-(4-((1S,4S)-2-oxa-5-azabicyclo[2.2.1]heptan-5-yl)pyridin-3-yl)azetidine-1-carbonyl)-5-oxooctahydro-1H-pyrrolo[1,2-a]azepin-6-yl)carbamoyl)benzo [b]thiophen-5-yl)fluoromethyl) phosphonic acid]
3 to 30 µM	< 0.1 µM	CO[C@H]1CCN(c2ccncc2C2CN(C(=O)[C@@H]3CC[C@@H]4CCC[C@H](NC(=O)c5cc6cc(CP(=O)(O)O)ccc6s5)C(=O)N43)C2)C1 [Compound 686, ((2-(((3S,6S,9aS)-3-(3-(4-((S)-3-methoxypyrrolidin-1-yl)pyridin-3-yl)azetidine-1-carbonyl)-5-oxooctahydro-1H-pyrrolo[1,2-a]azepin-6-yl)carbamoyl)benzo [b]thiophen-5-yl)methyl) phosphonic acid]
3 to 30 µM	< 0.1 µM	O=C(N[C@H]1CCC[C@H]2CC[C@@H](C(=O)N3CC(c4cnccc4N4CC[C@@H](F)C4)C3)N2C1=O)c1cc2cc(CP(=O)(O)O)ccc2s1 [Compound 687, ((2-(((3S,6S,9aS)-3-(3-(4-((R)-3-fluoropyrrolidin-1-yl)pyridin-3-yl)azetidine-1-carbonyl)-5-oxooctahydro-1H-pyrrolo[1,2-a]azepin-6-yl)carbamoyl)benzo [b]thiophen-5-yl)methyl) phosphonic acid]
3 to 30 µM	< 0.1 µM	CO[C@@H]1CCN(c2ccncc2C2CN(C(=O)[C@@H]3CC[C@@H]4CCC[C@H](NC(=O)c5cc6cc(CP(=O)(O)O)ccc6s5)C(=O)N43)C2)C1 [Compound 688, ((2-(((3S,6S,9aS)-3-(3-(4-((R)-3-methoxypyrrolidin-1-yl)pyridin-3-yl)azetidine-1-carbonyl)-5-oxooctahydro-1H-pyrrolo[1,2-a]azepin-6-yl)carbamoyl)benzo [b]thiophen-5-yl)methyl) phosphonic acid]
3 to 30 µM	< 0.1 µM	O=C(N[C@H]1CCC[C@H]2CC[C@@H](C(=O)N3CC(c4cnccc4N4CC(C(F)F)C4)C3)N2C1=O)c1cc2cc(CP(=O)(O)O)ccc2s1 [Compound 691, ((2-(((3S,6S,9aS)-3-(3-(4-(3-(difluoromethyl)azetidin-1-yl)pyridin-3-yl)azetidine-1-carbonyl)-5-oxooctahydro-1H-pyrrolo[1,2-a]azepin-6-yl)carbamoyl)benzo [b]thiophen-5-yl)methyl) phosphonic acid]
3 to 30 µM	< 0.1 µM	O=C(N[C@H]1CCC[C@H]2CC[C@@H](C(=O)N3CC(c4cnccc4N4CC(C(F)(F)F)C4)C3)N2C1=O)c1cc2cc(CP(=O)(O)O)ccc2s1 [Compound 692, ((2-(((3S,6S,9aS)-5-oxo-3-(3-(4-(3-(trifluoromethyl)azetidin-1-yl)pyridin-3-yl)azetidine-1-carbonyl)octahydro-1H-pyrrolo[1,2-a]azepin-6-yl)carbamoyl)benzo [b]thiophen-5-yl)methyl) phosphonic acid]
3 to 30 µM	1 to 10 µM	CN(C)c1cccnc1C1CN(C(=O)[C@@H]2CC[C@@H]3CCC[C@H](NC(=O)c4cc5cc(C(F)P(=O)(O)O)ccc5s4)C(=O)N32)C1 (stereo partly drawn) [Compound 693, ((2-(((3S,6S,9aS)-3-(3-(3-(dimethylamino)pyridin-2-yl)azetidine-1-carbonyl)-5-oxooctahydro-1H-pyrrolo[1,2-a]azepin-6-yl)carbamoyl)benzo [b]thiophen-5-yl)fluoromethyl) phosphonic acid]
0.3 to 3 µM	< 0.1 µM	O=C(N[C@H]1CCC[C@H]2CC[C@@H](C(=O)N3CC(c4cnccc4N4C[C@H]5C[C@@H]4CO5)C3)N2C1=O)c1cc2cc(C(F)P(=O)(O)O)ccc2s1 (stereo partly drawn) [Compound 694, ((2-(((3S,6S,9aS)-3-(3-(4-((1R,4R)-2-oxa-5-azabicyclo[2.2.1]heptan-5-yl)pyridin-3-yl)azetidine-1-carbonyl)-5-oxooctahydro-1H-pyrrolo[1,2-a]azepin-6-yl)carbamoyl)benzo [b]thiophen-5-yl)fluoromethyl) phosphonic acid]

Compound	IC50 [1]	IC50 [2]
O=C(N[C@H]1CCC[C@H]2CC[C@@H](C(=O)N3CC(c4cnccc4N4C5COCC4C5)C3)N2C1=O)c1cc2cc(C(F)P(=O)(O)O)ccc2s1 (stereo partly drawn) [Compound 671, ((2-(((3S,6S,9aS)-3-(3-(4-(3-oxa-6-azabicyclo[3.1.1]heptan-6-yl)pyridin-3-yl)azetidine-1-carbonyl)-5-oxooctahydro-1H-pyrrolo[1,2-a]azepin-6-yl)carbamoyl)benzo [b]thiophen-5-yl)fluoromethyl) phosphonic acid]	0.3 to 3 µM	< 0.1 µM
